Measurements from patent publication US8563550B2, “Imidazolothiadiazoles for use as protein kinase inhibitors” (Centro Nacional de Investigaciones Oncologicas (CNIO), priority 2007, dated 2013).

Each molecule was assayed against T1, PIM-1 (Homo sapiens, UniProt P11309) (assay: PIM-1 biochemical assay (ADP Hunter assay kit)). Conditions: compound concentration 10 μM; approximate values.
T1 construct: histidine tag (C); made in house
Source text: The biochemical assay to measure PIM-1 activity relies on the ADP Hunter assay kit (DiscoveRx Corp., Cat. #90-0077), that determines the amount of ADP as direct product of the kinase enzyme activity.
The enzyme has been expressed and purified in-house as a recombinant human protein with a C-terminal histidine tag. The protein is active and stable.
Assay conditions were as indicated by the kit manufacturers with the following adaptations for the kinase activity step: • Kinase assay buffer and assay volume stay as recommended (15 mM HEPES, pH 7.4, 20 mM NaCl, 1 mM EGTA, 0.02% Tween 20, 10 mM MgCl2 and 0.1 mg/ml bovine γ-globulins/75 μl assay volume) • Incubation time and temperature: 60 min at 30° C. • PIM-1 concentration: 50 pg/μl • ATP concentration: 100 μM • PIM-1 substrate peptide: PIMtide (ARKRRRHPSGPPTA) • Peptide concentration: 60 μM • Positive control for kinase activity inhibition: 1-10 μM Staurosporine • DMSO concentration have to stay below 2% during the kinase reaction
Assays were performed in either 96 or 384-well plates. The final outcome of the coupled reactions provided by the kit is the release of the fluorescent product Resorufin and has been measured with a multilabel HTS counter VICTOR V (PerkinElmer) using an excitation filter at 544 nm and an emission filter at 580 nm.

T1 sequence (P11309 whole entry): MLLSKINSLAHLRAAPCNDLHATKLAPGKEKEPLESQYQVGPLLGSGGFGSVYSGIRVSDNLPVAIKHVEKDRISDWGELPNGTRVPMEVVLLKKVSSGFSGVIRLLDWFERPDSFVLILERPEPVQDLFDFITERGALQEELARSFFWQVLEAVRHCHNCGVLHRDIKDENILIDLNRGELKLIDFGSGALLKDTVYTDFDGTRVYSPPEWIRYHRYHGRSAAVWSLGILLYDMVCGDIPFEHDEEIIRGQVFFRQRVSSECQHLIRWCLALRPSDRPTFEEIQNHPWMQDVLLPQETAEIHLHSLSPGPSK

Molecule	Percentage Inhibition of PIM-1 at 10 μM [%]
4-{2-[(Furan-2-ylmethyl)-amino]-imidazo[2,1-b][1,3,4]thiadiazol-5-yl}-phenol [34(40)]	100
FC(F)(F)Oc1cccc(-c2cnc3sc(NCC4CC4)nn23)c1 [34(39), Cyclopropylmethyl-[5-(3-trifluoromethoxy-phenyl)-imidazo[2,1-b][1,3,4]thia-diazol-2-yl]-amine]	82

Same assay, conditions: compound concentration 10 μM; approximate values; read-out: Percentage Inhibition of PIM-1 at 10 μM

Molecule	inhibition at 10 µM [%]
CN(C)c1cccc(-c2cnc3sc(Oc4ccc(F)cc4)nn23)c1 [Example 15, {3-[2-(4-Fluoro-phenoxy)-imidazo[2,1-b][1,3,4]thiadiazol-5-yl]-phenyl}-dimethyl-amine]	89
COc1ccc(CNc2nn3c(-c4ccc(F)c(Cl)c4)cnc3s2)cc1 [34(33), [5-(3-Chloro-4-fluoro-phenyl)-imidazo[2,1-b][1,3,4]thiadiazol-2-yl]-(4-meth-oxybenzyl)-amine]	84
CC(C)CNc1nn2c(-c3cccc(N(C)C)c3)cnc2s1 [34(3), [5-(3-Dimethylamino-phenyl)-imidazo[2,1-b][1,3,4]thiadiazol-2-yl]-isobutyl-amine]	97
CN(C)c1cccc(-c2cnc3sc(NCC4CCOCC4)nn23)c1 [34(16), [5-(3-Dimethylamino-phenyl)-imidazo[2,1-b][1,3,4]thiadiazol-2-yl]-(tetrahydro-pyran-4-ylmethyl)-amine]	99
COCCNc1nn2c(-c3ccc4ccccc4c3)cnc2s1 [34(8), (2-Methoxy-ethyl)-(5-naphthalen-2-yl-imidazo[2,1-b][1,3,4]thiadiazol-2-yl)-amine]	98
Cc1cc(-c2cnc3sc(NCC4CC4)nn23)cc(C)c1O [34(58), 4-[2-(Cyclopropylmethyl-amino)-imidazo[2,1-b][1,3,4]thiadiazol-5-yl]-2,6-dimethylphenol]	97
Fc1ccc(-c2cnc3sc(-c4ccccc4)nn23)cc1 [Example 4, 5-(4-Fluorophenyl)-2-phenyl-imidazo[2,1-b][1,3,4]thiadiazole]	83
Oc1ccc(-c2cnc3sc(Nc4ccc(F)cc4)nn23)cc1 [Example 18, 4-[2-(4-Fluoro-phenylamino)-imidazo[2,1-b][1,3,4]thiadiazol-5-yl]-phenol]	82
COCCNc1nn2c(-c3ccc(F)c(Cl)c3)cnc2s1 [34(14), [5-(3-Chloro-4-fluoro-phenyl)-imidazo[2,1-b][1,3,4]thiadiazol-2-yl]-(2-meth-oxyethyl)-amine]	96
c1ccc(OCCNc2nn3c(-c4ccc5ccccc5c4)cnc3s2)cc1 [34(4), (5-Naphthalen-2-yl-imidazo[2,1-b][1,3,4]thiadiazol-2-yl)-(2-phenoxy-ethyl)-amine]	71
c1ccc2cc(-c3cnc4sc(NCC5CC5)nn34)ccc2c1 [34(10), Cyclopropylmethyl-(5-naphthalen-2-yl-imidazo[2,1-b][1,3,4]thiadiazol-2-yl)-amine]	77
Clc1cccc(-c2cnc3sc(NCCc4ccccn4)nn23)c1 [34(5), [5-(3-Chloro-phenyl)-imidazo[2,1-b][1,3,4]thiadiazol-2-yl]-(2-pyridin-2-yl-ethyl)-amine]	98
CC(=O)c1cccc(-c2cnc3sc(NCCN4CCOCC4)nn23)c1 [34(65), 1-{3-[2-(2-Morpholin-4-yl-ethylamino)-imidazo[2,1-b][1,3,4]thiadiazol-5-yl]-phenyl}-ethanone]	77
COc1ccc(CNc2nn3c(-c4ccc5ccccc5c4)cnc3s2)cc1 [34(12), (4-Methoxy-benzyl)-(5-naphthalen-2-yl-imidazo[2,1-b][1,3,4]thiadiazol-2-yl)-amine]	58
CC(=O)c1cccc(-c2cnc3sc(NCc4cccs4)nn23)c1 [34(22), 1-(3-{2-[(Thiophen-2-ylmethyl)-amino]-imidazo[2,1-b][1,3,4]thiadiazol-5-yl}-phenyl)-ethanone]	82
Fc1ccc(CNc2nn3c(-c4cccnc4)cnc3s2)cc1 [34(57), (4-Fluoro-benzyl)-(5-pyridin-3-yl-imidazo[2,1-b][1,3,4]thiadiazol-2-yl)-amine]	73
